Values joined by “and” are separate entries in the source; they are usually repeats but may differ in a detail not shown here. Equal entries are not always repeated.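 Dose response: 5 concentrations. Exposure: 48 h. Format: 96-well plates. Endpoint: linear interpolation; highest concentration if not reached. GI50: concentration for 50% inhibition of growth. Definition used: TGI = concentration required for complete inhibition of growth.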
How the values were obtained:
Assay in all cases: NCI anticancer screen, dose series, 48 h
786-0 renal = test system: 786-0 renal
HOP-62 NSCLC = test system: HOP-62 NSCLC
NCI-H23 lung = test system: NCI-H23 lung
NCI-H522 lung = test system: NCI-H522 lung
OVCAR-4 ovarian = test system: OVCAR-4 ovarian
OVCAR-8 ovarian = test system: OVCAR-8 ovarian
PC-3 prostate = test system: PC-3 prostate
SF-295 CNS = test system: SF-295 CNS
TK-10 renal = test system: TK-10 renal
U251 CNS = test system: U251 CNS

SMILES	TGI (786-0 renal) [µM]	TGI (HOP-62 NSCLC)	TGI (NCI-H23 lung)	TGI (NCI-H522 lung) [µM]	TGI (OVCAR-4 ovarian) [µM]	TGI (OVCAR-8 ovarian) [µM]	TGI (PC-3 prostate) [µM]	TGI (SF-295 CNS) [µM]	TGI (TK-10 renal)	TGI (U251 CNS) [µM]	GI50 (HOP-62 NSCLC)	GI50 (NCI-H23 lung)	GI50 (NCI-H522 lung) [µM]	GI50 (OVCAR-4 ovarian) [µM]	GI50 (OVCAR-8 ovarian) [µM]	GI50 (PC-3 prostate) [µM]	GI50 (SF-295 CNS) [µM]	GI50 (TK-10 renal)	GI50 (U251 CNS) [µM]
O=c1[nH]nc(-c2ccccc2)n1/N=C\c1ccccc1	> 100	> 100 µM	> 100 µM	> 100	> 100	> 100	> 100	> 100	> 100 µM	> 100									
COc1c(O)c(C=O)c2c(O)c(-c3c(C)cc4c(C(C)C)c(OC)c(O)c(C=O)c4c3O)c(C)cc2c1C(C)C		9.18 µM	13.2 µM	6.56	14	16.4		17	19.3 µM	12.2									
CCNC(=S)N=Nc1c(O)[nH]c2ccc([N+](=O)[O-])cc12	69	> 100 µM	> 100 µM		> 100	> 100	> 100	> 100	> 100 µM	> 100									
COc1ccc(N2C(=O)CC(=O)N(C(=O)COc3ccc(OCC(=O)N4C(=O)CC(=O)N(c5ccc(OC)cc5)C4=S)cc3)C2=S)cc1	> 100		> 100 µM	> 100	> 100		> 100	> 100	> 100 µM	> 100									
C=C[C@@H](C)[C@H](NS(=O)(=O)c1ccc(C)cc1)C(=O)OCC	> 100	> 100 µM	> 100 µM	57.5	> 100	> 100	> 100	63.4	> 100 µM	97.3									
Nc1ccc(S(=O)(=O)c2ccc(NCN3C(=O)NC(=O)C(=O)C3=O)cc2)cc1	> 100	> 100 µM	> 100 µM	> 100	> 100	> 100	> 100	> 100	> 100 µM	> 100									
O=C(N/N=C/C=C/c1ccc([N+](=O)[O-])o1)c1cc2ccccc2cc1O		10.6 µM	2.75 µM	2.72	2.77	21.7	9.97	21.2	8.13 µM	4.16	3.27 µM	1.02 µM	0.486	1.06	1.45	2.02	3.37	2.44 µM	1.42
CO/N=C1\CC(NC(=O)CNC(=O)OC(C)(C)C)c2ccsc21 (stereo unspecified)		> 100 µM	> 100 µM		> 100	> 100	> 100	> 100	> 100 µM	> 100									
OC1(c2ccccc2)CCN(Cc2c[nH]c3ccccc23)CC1	> 100	> 100 µM	> 100 µM	> 100	> 100	> 100	> 100	> 100	> 100 µM	> 100									
Cc1cc(-c2nc3cc(F)ccc3s2)ccc1NC(=O)[C@@H](N)CCCCN	7.29	11 µM	4.93 µM	21	22	11.2	21.4	9.62	0.903 µM	3.89									
CCN(CC)N1C(=O)[N+](CC)(CC)N=C1[O-]	> 100	> 100 µM	> 100 µM	> 100	> 100	> 100	> 100	> 100	> 100 µM	> 100									
NS(=O)(=O)c1ccc(/C=C/c2ccc(F)cc2)cc1	41.2	65.9 µM	> 100 µM	27.6	> 100	30	> 100	78.6	> 100 µM	45.7		45.1 µM	4.81	34.4	15.2				7.93
CC(=O)Oc1cc2c(cc1OC(C)=O)OCC(c1ccc(C)cc1)C2 (stereo unspecified)		44.4 µM	32.1 µM	6.86	25.7	68.6		76.3		38.8									
CSCCC(N)C(=O)NCCNc1ccc(NCCNC(=O)C(N)CCSC)c2c1C(=O)c1ccccc1C2=O (stereo unspecified)	1.89	5.22 µM	2.32 µM	1.3	3.71	4.17	6.02	10.7	9.3 µM	2.44									
Cc1ccc2c(=O)cc(-c3ccc(Cl)s3)[nH]c2n1	> 80.4	> 100 µM	> 22.9 µM		> 100	> 53.8	> 100	4.85	> 100 µM	> 100									
C/C=C/c1cc(=O)c([C@@H]2OC(=O)c3cc(OC)cc(OC)c32)co1		> 100 µM	> 100 µM		> 100	> 100		> 100	> 100 µM										
O=C1C(Cl)=C(OCCCl)C(=O)c2c(O)ccc(O)c21	17.3	30.4 µM	19.8 µM		5.46	47.6	26	33.3	7.76 µM	27.9									
Cc1cccc(Nc2nn3c(=O)c4c5c(sc4nc3s2)CCCC5)c1	> 100	> 100 µM	57.1 µM	> 100	> 100	> 100	> 100	14.4	> 100 µM	> 100									
Cc1cc(C)nc(SC2=C(Nc3ccc(C)c(Cl)c3)C(=O)N(Cc3ccccc3)C2=O)n1		> 160 µM	> 160 µM	> 160	> 160	> 160			> 160 µM	> 160	1.35 µM	> 160 µM	> 160	> 160	> 160			> 160 µM	> 160
CC(=O)NCCC1CN(C(=O)/C=C/I)c2ccccc21 (stereo unspecified)	3.11	27.7 µM	25.6 µM	2.83	4.45	25.4	21.1	28.9	3.63 µM	24.2									
CCOC(=O)c1nc2ccc(C(F)(F)F)cc2nc1Oc1cc(OC)c(OC)c(OC)c1	> 100	> 100 µM			7.69	> 100	> 100	> 100	> 100 µM	> 100									
O=[N+]([O-])c1ccc2sc(C=Nc3cnccn3)cc2c1	> 100	> 100 µM	> 100 µM	> 100		> 100	> 100	> 100	> 100 µM	> 100									

SMILES	TGI (786-0 renal) [µM]	TGI (HOP-62 NSCLC)	TGI (NCI-H23 lung)	TGI (NCI-H522 lung) [µM]	TGI (OVCAR-4 ovarian) [µM]	TGI (OVCAR-8 ovarian) [µM]	TGI (PC-3 prostate) [µM]	TGI (SF-295 CNS) [µM]	TGI (TK-10 renal)	TGI (U251 CNS) [µM]	GI50 (HOP-62 NSCLC)	GI50 (NCI-H23 lung)	GI50 (NCI-H522 lung) [µM]	GI50 (OVCAR-4 ovarian) [µM]	GI50 (OVCAR-8 ovarian) [µM]	GI50 (PC-3 prostate) [µM]	GI50 (SF-295 CNS) [µM]	GI50 (TK-10 renal)	GI50 (U251 CNS) [µM]
COc1cc([C@@H]2c3cc4c(cc3[C@@H](c3c(O)cc(O)c5c3O[C@H](c3ccc(O)c(O)c3)[C@@H](O)C5)[C@H]3COC(=O)[C@H]23)OCO4)cc(OC)c1OC	> 100	3.76 µM	> 100 µM	> 100	3.35	> 100	3.38	3.45	3.53 µM	3.64									
OCCO/N=C1\C(c2c(O)[nH]c3ccccc23)=Nc2ccccc21	> 100	> 100 µM	> 100 µM	> 100	> 100	> 100	> 100	> 100	> 100 µM	> 100									
CSCSSC	> 100	> 100 µM	> 100 µM	> 100	> 100	> 100	> 100	> 100	> 100 µM	> 100									
CC(=C(c1ccccc1)c1ccccc1)N1C(=O)CC(=O)N1C		> 100 µM	> 100 µM		79.5	> 100	> 100	> 100	> 100 µM	> 100									
COc1ccc(C2=Nc3cc(C)c(C)cc3NC(c3ccccc3)C2)cc1 (stereo unspecified)	> 100	> 100 µM	> 100 µM	> 100	> 100	> 100	> 100	> 100	> 100 µM	> 100									
CCNCCCn1c2c(c3ccc(Cl)cc3c1=O)C(=O)c1cc(OC)cnc1-2		1.43 µM	2.47 µM	24.5	2.4	3.22				1.73	0.122 µM	0.539 µM	0.263	0.542	0.694				0.219
CCCCC(=O)c1c(O)nc2sccn2c1=O		> 10 µM	> 10 µM	> 10	> 10	> 10	> 10	> 10	> 10 µM	> 10									
O=S(Nc1ccccc1)c1ccc(N2CCOCC2)cc1 (stereo unspecified)	> 100	> 100 µM	> 100 µM	> 100	> 100	> 100		> 100	> 100 µM	> 100									
CN(C)C(=O)OC1C(=O)N(C)c2ccc(Cl)cc2C2(c3ccccc3)N1C2(Cl)Cl (stereo unspecified)		> 100 µM	> 100 µM	> 100	> 100	> 100		> 100	> 100 µM	> 100									
C=C/C(C)=C\CC1[C@](C)(O)CC[C@H]2C(C)(C)C(=O)CC[C@]12C (stereo partly specified)	> 100		> 100 µM	> 100	> 100	> 100	> 100	> 100	> 100 µM	> 100									
NCCCN(CCCN(C(=O)Nc1ccccc1)c1ccccc1)C(=O)Nc1ccccc1	> 100	67.5 µM	> 100 µM	43.1		> 100	> 100	58.3	> 100 µM	> 100									
CC(NC(=O)C(NC(=O)CNC(=O)OC(C)(C)C)C(C)C)C(=O)Oc1c(Cl)c(Cl)c(Cl)c(Cl)c1Cl (stereo unspecified)		35.7 µM	29.5 µM	45.2	60.9	40.8	32.1	34.3	77.2 µM	48.3									
C[n+]1cccc2c(=O)c3ccccc3oc21		> 100 µM	> 100 µM	> 100	> 100	> 100	> 100	> 100	> 100 µM	> 100									
Cc1cc(F)ccc1S(=O)(=O)Nc1cc(-c2c(O)ccc3ccccc23)c(O)c2ccccc12		18.7 µM	13.3 µM	4.77	6.66	> 100	5.12	10.3	17.6 µM	15.5	3.27 µM	2.77 µM	1.77	2.21	3.65	1.37	3.02	5.87 µM	3.67
[Cl][Sn]([c]1ccccc1)([c]1ccccc1)[c]1ccccc1		0.467 µM and 0.188 µM and 0.287 µM	0.285 µM and 0.0456 µM				1.02		0.604 µM and 0.283 µM		0.21 µM and 0.0575 µM and 0.132 µM	0.0815 µM and 0.0133 µM				0.327		0.24 µM and 0.148 µM	
Cc1csc(NC23CC4CC(CC(C4)C2)C3)[n+]1C(P(=O)([O-])O)P(=O)(O)O (stereo unspecified)	> 100	> 100 µM	> 100 µM	> 100		> 100	> 100	> 100	> 100 µM	> 100									
CC1CCCC2(CC[N+](C)(CCC[N+](C)(C)C)CC2)C1 (stereo unspecified)	> 100	> 100 µM		> 100	> 100	> 100	> 100	> 100	> 100 µM	> 100									
COC(OC)[C@@H]1OC[C@H](n2cnc3c(N)ncnc32)[C@H]1O	> 100	> 100 µM	> 100 µM		> 100		> 100	> 100	> 100 µM	> 100									
COc1cc2ccc(=O)oc2cc1O		411 µM	> 414 µM	618	> 172	424		79.7		455									
NC(=O)c1cccc([N+](=O)[O-])c1	> 100	> 100 µM	> 100 µM	> 100		> 100		> 100	> 100 µM	> 100									
COP(=O)(OC)C(Cc1cn(C(C)=O)c2ccccc12)C(=O)O (stereo unspecified)		> 100 µM	> 100 µM	> 100	> 100	> 100	> 100	> 100	> 100 µM	> 100									

Reference: PubChem BioAssay (NCI)
